# Experimental data published in ChEMBL document CHEMBL1153415, “Evaluation of antioxidant properties of monoaromatic derivatives of pulvinic acids” (J Med Chem, 2009).
# Calls of active or inactive are those of the source. The calls are words filed in the database; no cut-off is given here.
# How the values were obtained:
# [1] = Antioxidant activity against UV/H2O2-induced thymidine degradation by thymidine protection assay; assay type: functional
# [2] = Antioxidant activity against Fe/EDTA/H2O2-induced thymidine degradation by thymidine protection assay; assay type: functional
# [3] = Antioxidant activity against […]/EDTA/H2O2-induced pEGFPLuc plasmid DNA degradation assessed as remaining supercoiled DNA form at 125 uM by gel-electrophoresis; assay type: functional
# [4] = Antioxidant activity against superoxide radical assessed as trolox equivalents by luminol-enhanced chemiluminescence; assay type: functional
# CHO = test: Cytotoxicity against CHO cells at 10 to 100 uM by MTT assay relative to control; assay type: cell-based, Cricetulus griseus; conditions: chinese hamster
# [5] = Antioxidant activity against UV/H2O2-induced thymidine degradation at 100 uM by thymidine protection assay; assay type: functional
# [6] = Antioxidant activity against Fe/EDTA/H2O2-induced thymidine degradation at 100 uM by thymidine protection assay; assay type: functional
EC50 [1] [µM],EC50 [2] [µM],SMILES,Activity [3],Activity [4] [µg],Activity (CHO),Activity [5],Activity [6]
90,109,COC(=O)/C(=C1/OC(O)=C(c2ccc(OC)cc2)C1=O)c1ccc(OC)cc1,Active,54,Non-toxic,,
,,COc1ccc(C2=C(O)/C(=C(/C)C(=O)NCCCN)OC2=O)cc1,40%,81,,30%,37%
117,608,COc1ccc(C2=C(O)/C(=C(/C)C(C)(C)O)OC2=O)cc1,40%,,Non-toxic,,
,,COc1ccc(C2=C(O)/C(=C(/C)C(=O)N3CCOCC3)OC2=O)cc1,Active,79,Non-toxic,30%,37%
,,COC(=O)/C(=C1/OC(=O)C(C)=C1O)c1ccc(Br)cc1,,87,,,
,,COC(=O)/C(=C1/OC(=O)C(c2ccccc2)=C1O)c1ccccc1,,,,Active,Active
,,COC(=O)/C(C)=C1/OC(=O)C(c2ccc(F)cc2)=C1O,Active,,,Active,Active
,,COC(=O)/C(C)=C1/OC(=O)C(c2ccccc2)=C1O,Active,,Non-toxic,,
91,226,CCCCNC(=O)/C(C)=C1/OC(=O)C(c2ccc(OC)cc2)=C1O,40%,86,Non-toxic,30%,37%
,,COC(=O)/C(C)=C1/OC(=O)C(/C=C/c2ccccc2)=C1O,Active,,,Active,Active
,,COc1ccc(C2=C(O)/C(=C(/C)C(=O)N(C)OC)OC2=O)cc1,Active,,,30%,37%
130,196,COC(=O)/C(C)=C1/OC(=O)C(c2ccc(OC)cc2)=C1O,40%,141,,,
,,COc1ccc(/C(C(=O)OC(C)C)=C2\OC(=O)C(C)=C2O)cc1,,77,Non-toxic,,
175,971,COC(=O)/C(=C1/OC(=O)C(C)=C1O)c1ccc(OC)cc1,,,,,
,,COC(=O)/C(C)=C1/OC(=O)C(c2ccc(Br)cc2)=C1O,Active,113,Non-toxic,Active,Active
,,COc1ccc(C2=C(O)/C(=C(/C)C(=O)OC(C)C)OC2=O)cc1,Active,105,,27%,37%
220,850,COC(=O)/C(=C1/OC(=O)C(C)=C1O)c1ccccc1,,,Non-toxic,,
,,COC(=O)/C(C)=C1/OC(=O)C(c2ccc(C(C)C)cc2)=C1O,Active,,,Active,Active
